≈ marks a conversion by molar mass, not a printed value. Read-outs that look alike come from different tables or passages of the source.
What was measured:
C. parapsilosis = assay: Antifungal Activity Assay (broth microtiter MIC), C. parapsilosis; assay type: cell-based, Candida parapsilosis; details: Lodderomyces parapsilosis, ATCC22019, 48 h, ATCC 22019, 3 replicates, MIC recorded at 48 h, read-out: MIC, C. parapsilosis ATCC 22019
In short: (§1)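 Colonies from 24 h Sabouraud dextrose agar plates (35° C) are suspended in RPMI 1640+MOPS and diluted to give 2.5×10^3 CFU/mL in the wells. Plates are set up per CLSI M27-A3. Visual MIC is recorded at 48 h.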

C. krusei = assay: Antifungal Activity Assay (broth microtiter MIC), C. krusei; assay type: cell-based, Candida krusei; details: Pichia kudriavzevii, ATCC6258, 48 h, ATCC 6258, 3 replicates, MIC recorded at 48 h, read-out: MIC, C. krusei ATCC 6258
In short: as §1

[1] = tested on: Collectotrichum graminicola (Cg); assay: Growth inhibition assay of fungal pathogens, Cg; assay type: cell-based; details: 48 h, Collectotrichum graminicola, read-out: Concentration at 90% Inhibition Cg
In short: (§2)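 Spores diluted in 17% V8 liquid media and incubated with compound at final 50, 10, 2 ppm or 2, 0.4, 0.08 ppm (2% DMSO). OD600 plus visual ratings at 24 and 48 hours, blank-subtracted; percent growth inhibition from 48 h readings relative to 2% DMSO control.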

[2] = tested on: Phytophthora capsici (Pc); assay: Growth inhibition assay of fungal pathogens, Pc; assay type: cell-based; details: 48 h, read-out: Concentration at 90% Inhibition Pc
In short: as §2

[3] = tested on: Fusarium moniliforme (Fm); assay: Growth inhibition assay of fungal pathogens, Fm; assay type: cell-based; details: Fusarium verticillioides, 48 h, Fusarium moniliforme, read-out: Concentration at 90% Inhibition Fm
In short: as §2

Diplodia maydis (Dm) = assay: Growth inhibition assay of fungal pathogens, Dm; assay type: cell-based; details: Stenocarpella maydis, 48 h, Diplodia maydis, read-out: Concentration at 90% Inhibition Dm
In short: as §2

[4] = tested on: Fusarium virguliforme (Fv); assay: Growth inhibition assay of fungal pathogens, Fv; assay type: cell-based; details: 48 h, read-out: Concentration at 90% Inhibition Fv
In short: as §2

Septoria tritici (St) = assay: Growth inhibition assay of fungal pathogens, St; assay type: cell-based; details: Zymoseptoria tritici, 48 h, Septoria tritici, read-out: Concentration at 90% Inhibition St
In short: as §2

C. albicans = assay: Antifungal Activity Assay (broth microtiter MIC), C. albicans; assay type: cell-based, Candida albicans; details: Candida albicans, ATCC90028, 48 h, ATCC 90028, 3 replicates, MIC recorded at 48 h, read-out: MIC, C. albicans ATCC 90028
In short: as §1

Rhizoctonia solani (Rs) = assay: Growth inhibition assay of fungal pathogens, Rs; assay type: cell-based; details: 48 h, mycelial plugs, read-out: Concentration at 90% Inhibition Rs
human (hACC2) = human (hACC2) (Homo sapiens, UniProt O00763); assay: In vitro ACC inhibition assay (ADP-Glo), hACC2; assay type: biochemical; details: 5 nM ACC2, 20 μM ATP, 20 μM acetyl-CoA
Method: The detailed procedure is as follows. […] 10 μL ADP glo reagent was added. […] 20 μL kinase detection reagent was added.

[5] = growth inhibition at 48 hours vs 2% DMSO control
[6] = growth inhibition vs 2% DMSO control at 48 hours

Chain of human (hACC2) (O00763 whole entry): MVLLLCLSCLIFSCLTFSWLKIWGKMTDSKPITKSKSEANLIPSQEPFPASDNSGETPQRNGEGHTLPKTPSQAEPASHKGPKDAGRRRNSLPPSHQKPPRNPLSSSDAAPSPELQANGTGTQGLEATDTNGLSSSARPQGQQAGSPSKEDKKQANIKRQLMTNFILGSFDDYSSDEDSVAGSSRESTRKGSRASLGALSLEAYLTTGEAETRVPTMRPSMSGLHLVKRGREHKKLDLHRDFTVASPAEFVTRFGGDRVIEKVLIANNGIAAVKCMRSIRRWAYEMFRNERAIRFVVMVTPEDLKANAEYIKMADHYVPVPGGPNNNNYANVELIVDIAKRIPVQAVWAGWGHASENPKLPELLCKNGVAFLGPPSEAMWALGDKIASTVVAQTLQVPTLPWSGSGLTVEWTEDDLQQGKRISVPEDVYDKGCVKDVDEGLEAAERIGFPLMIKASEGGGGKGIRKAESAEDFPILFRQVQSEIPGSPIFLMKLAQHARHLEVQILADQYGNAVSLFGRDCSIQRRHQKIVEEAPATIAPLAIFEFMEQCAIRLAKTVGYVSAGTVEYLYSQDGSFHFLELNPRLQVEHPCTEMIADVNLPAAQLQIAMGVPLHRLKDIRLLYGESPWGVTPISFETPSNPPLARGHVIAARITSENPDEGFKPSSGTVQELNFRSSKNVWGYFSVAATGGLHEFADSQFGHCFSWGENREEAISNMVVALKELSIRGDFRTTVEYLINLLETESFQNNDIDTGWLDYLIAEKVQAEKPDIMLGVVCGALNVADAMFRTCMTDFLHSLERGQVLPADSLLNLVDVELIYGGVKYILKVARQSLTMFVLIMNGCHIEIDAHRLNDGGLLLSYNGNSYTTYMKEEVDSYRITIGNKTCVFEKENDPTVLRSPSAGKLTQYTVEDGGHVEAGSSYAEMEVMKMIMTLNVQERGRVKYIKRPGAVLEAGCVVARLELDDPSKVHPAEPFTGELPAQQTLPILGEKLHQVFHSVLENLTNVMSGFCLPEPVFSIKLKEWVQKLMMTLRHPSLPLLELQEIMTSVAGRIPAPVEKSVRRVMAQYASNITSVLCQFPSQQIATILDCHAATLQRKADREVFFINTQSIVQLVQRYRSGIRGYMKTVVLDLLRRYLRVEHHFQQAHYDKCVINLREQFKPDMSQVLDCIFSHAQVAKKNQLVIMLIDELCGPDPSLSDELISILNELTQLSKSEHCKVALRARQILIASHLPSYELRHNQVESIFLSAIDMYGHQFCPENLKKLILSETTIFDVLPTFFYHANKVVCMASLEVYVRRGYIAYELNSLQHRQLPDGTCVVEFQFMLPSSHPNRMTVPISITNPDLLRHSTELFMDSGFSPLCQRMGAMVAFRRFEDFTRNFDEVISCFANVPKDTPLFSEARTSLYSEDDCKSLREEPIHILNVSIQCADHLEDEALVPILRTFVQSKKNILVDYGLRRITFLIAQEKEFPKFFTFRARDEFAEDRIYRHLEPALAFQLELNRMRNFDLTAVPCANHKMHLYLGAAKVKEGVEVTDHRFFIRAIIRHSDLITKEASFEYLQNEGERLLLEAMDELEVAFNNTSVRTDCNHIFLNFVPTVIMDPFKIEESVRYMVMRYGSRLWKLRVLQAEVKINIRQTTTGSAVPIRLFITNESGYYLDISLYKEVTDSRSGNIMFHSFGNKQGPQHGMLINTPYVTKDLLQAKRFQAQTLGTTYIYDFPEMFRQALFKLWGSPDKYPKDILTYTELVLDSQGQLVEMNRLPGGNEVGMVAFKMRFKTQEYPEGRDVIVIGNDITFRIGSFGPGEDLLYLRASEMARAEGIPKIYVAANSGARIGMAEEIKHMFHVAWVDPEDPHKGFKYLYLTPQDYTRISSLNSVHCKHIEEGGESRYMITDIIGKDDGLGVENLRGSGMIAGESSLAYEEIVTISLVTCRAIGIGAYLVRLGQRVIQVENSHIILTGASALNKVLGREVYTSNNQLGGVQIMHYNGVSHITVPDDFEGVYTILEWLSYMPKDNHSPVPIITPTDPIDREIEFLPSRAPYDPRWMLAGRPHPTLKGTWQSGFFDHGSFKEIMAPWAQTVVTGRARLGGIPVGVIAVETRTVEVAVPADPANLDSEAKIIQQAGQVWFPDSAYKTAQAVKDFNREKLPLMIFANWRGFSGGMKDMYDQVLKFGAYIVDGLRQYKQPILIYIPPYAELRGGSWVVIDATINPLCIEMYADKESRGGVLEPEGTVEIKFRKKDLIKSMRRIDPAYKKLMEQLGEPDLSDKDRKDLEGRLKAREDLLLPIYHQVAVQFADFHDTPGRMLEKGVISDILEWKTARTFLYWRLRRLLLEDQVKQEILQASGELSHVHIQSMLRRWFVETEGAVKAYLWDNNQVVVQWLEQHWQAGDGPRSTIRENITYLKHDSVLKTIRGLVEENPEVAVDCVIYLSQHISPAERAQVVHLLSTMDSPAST

SMILES	MIC (C. parapsilosis; Table 3b (additional results))	MIC (C. krusei; Table 3b (additional results))	IC90 [1, 5]	IC90 [1, 6]	IC90 [2, 5]	IC90 [2, 6]	IC90 [3, 5]	IC90 [3, 6]	IC90 (Diplodia maydis (Dm); [5])	IC90 (Diplodia maydis (Dm); [6])	IC90 [4, 5]	IC90 [4, 6]	IC90 (Septoria tritici (St); [5])	IC90 (Septoria tritici (St); [6])	MIC (C. albicans; Table 3b (additional results))	IC90 (Rhizoctonia solani (Rs); [5])	IC90 (Rhizoctonia solani (Rs); [6])	IC50 (human (hACC2); Table 2a)	IC50 (human (hACC2); Table 2b, additional results)	other results
COCCO[C@@H](Cn1c(=O)n([C@H](C)C(=O)N2CCCC2)c(=O)c2c(C)c(-n3nccn3)sc21)c1cc(F)ccc1OC [Compound I-65, 1-((R)-2-(5-fluoro-2-methoxyphenyl)-2-(2-methoxy-ethoxy)ethyl)-5-methyl-3-((R)-1-oxo-1-(pyrrolidin-1-yl)propan-2-yl)-6-(2H-1,2,3-triazol-2-yl)thieno[2,3-d]pyrimidine-2,4(1H,3H)-dione]	1.01 to 2 µg/mL (≈ 1.68 to 3.33 µM)	2.01 to 4 µg/mL (≈ 3.35 to 6.66 µM)	10 µg/mL (≈ 16.6 µM)	> 50 µg/mL	> 50 µg/mL	> 50 µg/mL	0.4 µg/mL (≈ 0.666 µM)	0.4 µg/mL (≈ 0.666 µM)	10 µg/mL (≈ 16.6 µM)	> 50 µg/mL	0.4 µg/mL (≈ 0.666 µM)	0.4 µg/mL (≈ 0.666 µM)	> 50 µg/mL	> 50 µg/mL	2.01 to 4 µg/mL (≈ 3.35 to 6.66 µM)	2 µg/mL (≈ 3.33 µM)	2 µg/mL (≈ 3.33 µM)	10 to 40 nM	10 to 40 nM	MIC (C. parapsilosis; Table 3a): 2.1 to 4 µg/mL (≈ 3.5 to 6.66 µM); MIC (C. krusei; Table 3a): 2.1 to 4 µg/mL (≈ 3.5 to 6.66 µM); MIC (C. albicans; Table 3a): 2.1 to 4 µg/mL (≈ 3.5 to 6.66 µM)
COCCCO[C@@H](Cn1c(=O)n(C(C)(C)C(=O)N2CCCC2)c(=O)c2c(C)c(-n3nccn3)sc21)c1cc(F)ccc1OC [Compound I-68, (R)-1-(2-(5-fluoro-2-methoxyphenyl)-2-(3-methoxy-propoxy)ethyl)-5-methyl-3-(2-methyl-1-oxo-1-(pyrrolidin-1-yl)propan-2-yl)-6-(2H-1,2,3-triazol-2-yl)thieno[2,3-d]pyrimidine-2,4(1H,3H)-dione]	1.01 to 2 µg/mL (≈ 1.61 to 3.18 µM)	2.01 to 4 µg/mL (≈ 3.2 to 6.36 µM)	2 µg/mL (≈ 3.18 µM)	2 µg/mL (≈ 3.18 µM)	> 50 µg/mL	> 50 µg/mL	0.08 µg/mL (≈ 0.127 µM)	0.08 µg/mL (≈ 0.127 µM)	2 µg/mL (≈ 3.18 µM)	2 µg/mL (≈ 3.18 µM)	0.4 µg/mL (≈ 0.636 µM)	0.4 µg/mL (≈ 0.636 µM)	> 50 µg/mL	> 50 µg/mL	2.01 to 4 µg/mL (≈ 3.2 to 6.36 µM)	0.4 µg/mL (≈ 0.636 µM)	0.4 µg/mL (≈ 0.636 µM)	5 to 10 nM	5 to 10 nM	
